According to patent US12053465B2, “KCC2 expression enhancing compounds and uses thereof” (Whitehead Institute for Biomedical Research, priority 2017, dated 2024):

How the values were obtained:
human RTT neurons = assay: Membrane capacitance (Cm) of cultured human RTT neurons; assay type: cell-based; conditions: for increase of neuronal Cm: RTT neurons transfected with KCC2 shRNA; for membrane capacitance (Cm): cultured human RTT neurons, vs DMSO or MeBIO control
From the text: Moreover, a reduction in the number or the strength of excitatory glutamatergic synapses in RTT neurons has been observed in postmortem RTT patient brain samples (30), mouse models of RTT (53), and human stem cell-derived RTT neurons (54). Electrophysiology recording was utilized to assess whether KEECs could rescue the deficits in EGABA and excitatory synaptic transmission of RTT neurons. […] We further investigated whether the beneficial effect of KEECs is a direct result of the increases in neuronal KCC2 gene expression. […] Deficits in a number of morphological measurements, including nuclei size and neurite complexity and branching, are hallmarks of RTT neurons (54-56). […] To validate the morphological measurements, electrophysiological measurements of the neuronal membrane capacitance (Cm), an indicator of neuronal cell size (57) that is reduced in RTT neurons, were conducted.
Functionally mature human neuron cultures were obtained by seeding human WT or isogenic RTT NPCs on a layer of primary mouse astrocyte culture as previously described (57). In the cultured WT human neurons, KCC2 expression reaches mature level between 2-3 months (7). We therefore treated the WT or RTT human neurons 8-12 weeks in culture, with compounds for a duration of two weeks before conducting whole-cell patch-clamp recording. The extracellular bath solution, that perfused the recording chamber, consists of (in mM): 120 NaCl, 30 glucose, 25 HEPES, 5 KCl, 2 CaCl2, 1 MgCl2. The pH was adjusted to 7.3 with NaOH. The high-chloride internal pipette solution consists of (in mM): 147 KCl, 5 Na-phosphocreatine, 2 EGTA, 10 HEPES, 4 MgATP, and 0.5 Na2GTP; the pH 7.3 was adjusted with KOH. To record mini EPSC, the membrane potential was held at −70 mV, and 0.5 μM of TTX and 50 μM Picrotoxin were applied with bath solution to block action potential and GABAergic synaptic transmission.

immature mouse neurons = assay: Resting membrane potential and membrane capacitance of DIV6 immature mouse neurons; assay type: cell-based
[1] = test system: KCC2 expression (KCC2-2A-luciferase reporter); assay: KCC2-2A-luciferase reporter compound screening with RTT KCC2 reporter neurons; assay type: cell-based, human; conditions: for B Score: MECP2-null RTT human KCC2 reporter neurons, LINCS, SMART, ICCB libraries, Luc/CTG normalized to in-plate DMSO, hit = B score >3; for KCC2 reporter activity in RTT neurons: RTT KCC2-2A-luciferase reporter neurons vs in-plate DMSO
In short: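 MECP2-null RTT human neurons carrying a KCC2-2A-luciferase reporter, differentiated 4 weeks, were treated with library compounds at 10 μM for 1–2 weeks at 37 °C. Lysate luciferase was normalized to CellTiter-Glo ATP per well and expressed as fold change over in-plate DMSO. Hits were called at B score >3.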

SMILES	increase of neuronal Cm (human RTT neurons)	membrane capacitance (Cm) (human RTT neurons)	resting membrane potential (immature mouse neurons)	B Score [1]	KCC2 reporter activity in RTT neurons [1]	membrane capacitance (immature mouse neurons; vs DMSO control)
O=C1Nc2cc(Br)ccc2/C1=C1/Nc2ccccc2/C1=N\O [BIO, (2Z,3E)-6′-bromo-3-(hydroxyimino)-[2,3′-biindolinylidene]-2′-one]	abolished the capability	significantly higher Cm, at levels comparable to isogenic WT human neurons	does not significantly alter the resting membrane potential	3.42	significant increase of KCC2 reporter activity	–
O=C(c1ccc(/C=C/c2n[nH]c3ccccc23)cc1)N1CCNCC1 [KW-2449, (E)-(4-(2-(1H-indazol-3-yl)vinyl)phenyl)(piperazin-1-yl)methanone]	abolished the capability	significantly higher Cm, at levels comparable to isogenic WT human neurons	does not significantly alter the resting membrane potential	5.45	significant increase of KCC2 reporter activity	significantly increase the membrane capacitance
